Data from patent US20250276968A1, “8- AND 6-SUBSTITUTED PYRIDOPYRIMIDINE DERIVATIVES AS KRAS INHIBITORS” (Beta Pharma, Inc., priority 2022, published 2025).

Assay: Pharmacokinetics in male CD-1 mice (IV and PO dosing)
Type: in vivo
Conditions: mean plasma
Procedure: The pharmacokinetic profile of the Example 1 (compound 1a) was determined in male CD-1 mice by WuXi AppTec Co., Ltd., 1318 Wuzhong Avenue, Wuzhong District, Suzhou, China, 215104.

AUCExtra (3 mg/kg IV): 9.23% | AUMCExtra (3 mg/kg IV): 35.2% | Tlast (3 mg/kg IV): 8.00 h | AUCExtra (30 mg/kg PO): 17.1% | AUMCExtra (30 mg/kg PO): 43.8% | Tlast (30 mg/kg PO): 8.00 h
Structure (SMILES): C=C(F)C(=O)N1CCN(c2nc(OC[C@@H]3CCCN3C)nc3cc(-c4cccc5cccc(Cl)c45)cnc23)C[C@@H]1CC#N [Example 1, 2-((S)-4-(7-(8-Chloronaphthalen-1-yl)-2-(((S)-1-methylpyrrolidin-2-yl)methoxy)pyrido[3,2-d]pyrimidin-4-yl)-1-(2-fluoroacryloyl)piperazin-2-yl)acetonitrile]
